Assay in all cases: inhibition of tumour cell growth, NCI panel, 48 h
The test system of experiment [1] is CCRF-CEM leukemia.
In experiment [2] the test system is NCI-H522 lung.
Experiment [3] deals with MALME-3M melanoma.
For experiment [4], the system named is UACC-257 melanoma.
Experiment [5] relates to RXF 393 renal.
For experiment [6], the system named is DLD-1 colon.
Experiment [7] deals with SF-539 CNS.
For experiment [8], the system named is NCI-H460 lung.
Experiment [9] relates to OVCAR-8 ovarian.
Experiment [10] has as its system LXFL 529 NSCLC.

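Tested at 5 concentrations; 48 h exposure; 96-well plates; endpoints linearly interpolated, else capped at highest concentration. TGI is the concentration that stops growth completely.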

Take `COc1ccc2nc(-c3cccs3)cc(C(O)CN3CCSCC3)c2c1` (stereo not given): the TGI is 44.9 µM in experiment [1]; 45.3 µM in experiment [2]; 35 µM in experiment [3]; 63.7 µM in [4]; > 100 µM in experiment [5]; > 100 µM in experiment [6]. Besides, the TGI in experiment [7] came out at 51.3 µM; in [8] it was 45.1 µM; in experiment [9] it was 57.8 µM; in experiment [10], 91.8 µM.
For the compound `O=C(N/C(=C\c1ccc2c(c1)OCO2)c1nc2ccccc2[nH]1)c1ccccc1`, the TGI in experiment [1] is > 89.2 µM; in experiment [2] it was 61 µM; in [3], > 89.7 µM; in experiment [4], 35.8 µM; in experiment [5] it was 81.5 µM; in experiment [6] it was > 100 µM. Further, the TGI in experiment [7] was 82.7 µM; in experiment [8] it was > 100 µM; in [9], > 100 µM; in [10], 97.4 µM.
With `Cc1c(C(=O)C/C(=N\O)C(=O)Nc2cc(Cl)c(Cl)cc2Cl)[n+](=O)c2ccccc2n1[O-]`, the TGI in experiment [1] was > 100 µM; in experiment [2], 16.2 µM; in experiment [3], 21.1 µM; in experiment [4], 20.2 µM; in experiment [5] it was 68.8 µM; in [6], 81.8 µM. For the same compound, the TGI was found to be 32.7 µM in experiment [7], 35.2 µM in experiment [8], 40.7 µM in [9] and 30.8 µM in experiment [10].
Regarding `CC1=Nc2ccccc2S/C1=C(/C)NNC(=O)C(N)=O`, the TGI in [1], in experiment [2], in [3], in experiment [4], in experiment [5] and in experiment [6] was > 100 µM in each case. Besides, the TGI in experiment [7], in experiment [8], in experiment [9] and in experiment [10] was > 100 µM throughout.
